Assay [1] can be described thus: Langmuir isotherms, determination of affinity and capacity. Conditions: Langmuir isotherm at pH 5, 10 mM phosphate, 0.9% NaCl, binder mass 13.4-80.4 mg. The format is physicochemical. The method, then: The Langmuir isotherms were obtained using the same methodology as in Autissier et al. (2007), except in vitro solutions also contained 0.9% NaCl to make the assay better simulate physiological conditions. These Langmuir isotherms were generated at pH 5 and experimental conditions were similar to those in “Phosphate binding at physiological concentration” except the mass of binders was varied from 13.4-80.4 mg.
We further compared the phosphate binding abilities of FeOH Ad100, FeOH Ad100 SiO2, and lanthanum using Langmuir isotherms. The Langmuir equation relates the adsorption of molecules on a solid surface to a concentration and was adapted to determine the affinity and capacity of the above noted phosphate binders:
C=concentration of adsorbate unbound in mM
Cad/m=mmol of adsorbate bound per g binder
It was not possible to determine these values for Renagel because its low affinity required a higher concentration of phosphate than the physiologically relevant concentration (10 mM) that was tested in this experiment. Langmuir isotherms were generated at pH 5 and experimental conditions were similar to those in FIGS. 2a/b, except the mass of binders was varied from 13.4-80.4 mg.

Assay [2] is described as follows: In vitro phosphate binding at physiological concentration. It counts as physicochemical. The method, then: An exemplary assay for determining phosphate binding is reported in the example 2.1 in which equal masses of ferrihydrite (e.g. 53.6 mg), or indeed any other binder used as a comparison, and a phosphate binder of the present invention were assayed to determine the percentage of phosphate they are capable of binding under physiological conditions. In general, the mass of the materials used in the assay may be between 10 mg and 80 mg inclusive in a 20 mL assay. […]
A solution containing 10 mM phosphate, a physiologically relevant concentration, and 0.9% NaCl was adjusted to pH 3, pH 5 and finally pH 7. […] The percentage of phosphate binding was calculated according to: Phosphate binding=(1−([P]t0−[P]ti)/[P]ti)×100 […]
Iron and phosphorus contents of solutions or solids (including wet solids) were measured using a JY2000-2 ICPOES (Horiba Jobin Yvon Ltd., Stanmore, U.K.) at the iron specific wavelength of 259.940 nm, and at the phosphorus wavelengths of 177.440 and/or 214.914 nm. […] The percentage of iron in solution or solid phase was determined by the difference between the starting iron content and either the iron in the soluble phase or the iron in the solid phase depending on the assay. […]

Structures are written as SMILES.

For `O=C([O-])[O-].O=C([O-])[O-].O=C([O-])[O-].[La+3].[La+3]` [Lanthanum Carbonate, Lanthanum carbonate], the “K1 (Affinity)” value in assay [1] is on record as 1.6. Further, the “K2 (Capacity)” value in assay [1] (unit printed for K2, not in the table) is on record as 1.0 mmol P/g binder. The phosphate binding in assay [2] (20 mL 10 mM phosphate, 0.9% NaCl, 54 mg (53.6 mg) binder, pH 3 for 60 min then pH 5 for 60 min, sequentially (FIG. 2a/b)) is given as 70-85%; in assay [2] (binder exposed directly to the solution at pH 5 for 1 hour, without pre-conditioning at pH 3 (FIG. 3)), “≈ 30%”.

The record behind these values is patent publication US7943664B2, “Phosphate binding materials and their uses” (Medical Research Council, priority 2008, dated 2011).
